From PMC10354055, “An optimized Nurr1 agonist provides disease-modifying effects in Parkinson’s disease models” (Nature Communications, 2023)
“And” between values parts separate entries of the source, which are not always exact repeats. Identical values can stand only once.

Target: T1, Nur77 (Homo sapiens, UniProt P22736)
T1 construct: using LBD of NR4A subfamily members in SK-N-BE(2)C cells; expressed in transfected cells; host or cells: SK-N-BE(2)C
Test: Luciferase reporter assay, Nur77 LBD, SK-N-BE(2)C cells
Type: cell-based
Details: Fig. 1f, CQ 100 µM, 4A7C-301 20 µM, cytosporone B 10 µM

T1 sequence (P22736 360-595 limits assumed, species assumed): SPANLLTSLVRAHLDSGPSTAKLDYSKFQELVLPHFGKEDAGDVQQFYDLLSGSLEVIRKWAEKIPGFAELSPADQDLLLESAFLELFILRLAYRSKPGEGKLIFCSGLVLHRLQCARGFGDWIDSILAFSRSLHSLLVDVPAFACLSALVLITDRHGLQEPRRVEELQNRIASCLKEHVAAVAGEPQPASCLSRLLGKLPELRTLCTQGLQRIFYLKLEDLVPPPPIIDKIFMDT

Luciferase activity (fold), Nur77 (listed as cytosporone B): robustly increased
Structure (SMILES): CCCCCCCC(=O)c1c(O)cc(O)cc1CC(=O)OCC [Cytosporone B, cytosporone B]
Luciferase activity (fold), Nur77: 13.029 fold and 14.4047 fold and 12.8586 fold
